Measured values reported in US20140072657A1, “NOVEL PHARMACEUTICAL FORMULATION” (priority 2011, published 2014).

Assays:
Periodontitis = Periodontitis cases: sites with CPITN code 3+4 / code 4 pockets before and after the composition; assay type: in vivo, human
Excerpt: As indicator of periodontal status pocket depth is used according to Treatment Need codes 3 and 4 in Community Periodontal Index—Treatment Needs (CPITN). This code is applied to every treated tooth or implant.
Periodontal pockets: shallow (Code 3: 4-5 mrn) and deep (Code 4: 6 mm or more).
(§1) Initial motivation and cleaning instruction, supragingival biofilm reduction by trimestrially repeated brushing in CHX solution 0.07 wt % for two weeks by the patient and tooth and pocket cleaning by ultrasonic scaling as well as covering exposed root dentine by adhesive fillings to hide protein coaggregational binding sites for anaerobic microbial species (A.a., P.g., T.d.) was administered. […]

[1] = tested on: Gingivitis, edema, mucosal inflammation; experiment: Clinical observation of oral inflammation, edema and regeneration (gingivitis, dentition difficilis, healing cap, inflamed extraction socket); assay type: in vivo, human
Procedure: as §1

[2] = Case 11, 4000 I.E. systemically 2 months
[3] = cases 10, 11, systemic application over 2 months

C=C1CC[C@H](O)C/C1=C/C=C1\CCC[C@]2(C)[C@@H]([C@H](C)CCCC(C)C)CC[C@@H]12 [vit D3, vitamin D3]
Code 4: severe (Periodontitis; Case 11, 18 sites/3, 4000 I.E. systemically 2 months, before 22): 22
edema (Periodontitis; [2]): no edema
pocket regeneration code 3 (Periodontitis; [2]): +33%
sensitivity (Periodontitis; [2]): no sensitivity,
CPITN Code 3 + 4 Nr. (Periodontitis; Case 11, Periodontitis, Periimplantitis, 18 sites/3, 4000 I.E. systemically 2 months, before 61): 38
edema, inflammation and attachment loss (Periodontitis; [3]): stop of edema, inflammation and attachment loss
regeneration in code 3 CPITN pockets (Periodontitis; [3]): some regeneration
edema ([1]; Case 10, 4000 I.E. systemically 2 months): no edema
pockets ([1]; Case 10, Gingivitis, Mc Calls edema, 4000 I.E. systemically 2 months): Shallow pockets,
